Conditions: Liquid, Vibrating tube method

FC(C(F)(F)F)C(F)(F)F [1,1,1,2,3,3,3-heptafluoropropane]
Conditions | mass density [kg/m3]
313.14 K, 30999 kPa | 1493.6
313.14 K, 31036 kPa | 1493.7
313.14 K, 31073 kPa | 1494
313.14 K, 31110 kPa | 1494.1
313.14 K, 31162 kPa | 1494.3
313.14 K, 31193 kPa | 1494.3
313.14 K, 31225 kPa | 1494.5
313.14 K, 31252 kPa | 1494.5
313.14 K, 31284 kPa | 1494.6
313.14 K, 31324 kPa | 1494.9
313.14 K, 31355 kPa | 1494.8
313.14 K, 31397 kPa | 1495.1
313.14 K, 31585 kPa | 1495.6
313.14 K, 31617 kPa | 1495.8
313.14 K, 31653 kPa | 1495.9
313.14 K, 31696 kPa | 1495.9
313.14 K, 31739 kPa | 1496.2
313.14 K, 32132 kPa | 1497.6
313.14 K, 32203 kPa | 1497.7
313.14 K, 32369 kPa | 1498.3
313.14 K, 32414 kPa | 1498.5
313.14 K, 32447 kPa | 1498.5
313.14 K, 32485 kPa | 1498.7
313.14 K, 32523 kPa | 1498.9
313.14 K, 32566 kPa | 1499
313.14 K, 32604 kPa | 1499
313.14 K, 32652 kPa | 1499.4
313.14 K, 32736 kPa | 1499.5
313.14 K, 32789 kPa | 1499.7
313.14 K, 32821 kPa | 1500
313.14 K, 32853 kPa | 1500
313.14 K, 32900 kPa | 1500.1
313.14 K, 32937 kPa | 1500.2
313.14 K, 32975 kPa | 1500.4
313.14 K, 33013 kPa | 1500.5
313.14 K, 33094 kPa | 1500.7
313.15 K, 714 kPa | 1321.1
313.15 K, 733 kPa | 1321.4
313.15 K, 755 kPa | 1321.6
313.15 K, 777 kPa | 1321.7
313.15 K, 797 kPa | 1322.1
313.15 K, 819 kPa | 1322.3
313.15 K, 838 kPa | 1322.5
313.15 K, 871 kPa | 1322.8
313.15 K, 891 kPa | 1323.2
313.15 K, 917 kPa | 1323.3
313.15 K, 934 kPa | 1323.7
313.15 K, 963 kPa | 1323.9
313.15 K, 985 kPa | 1324
313.15 K, 1014 kPa | 1324.4
313.15 K, 1036 kPa | 1324.7
313.15 K, 1063 kPa | 1325
313.15 K, 1087 kPa | 1325.1
313.15 K, 1117 kPa | 1325.7
313.15 K, 1146 kPa | 1325.9
313.15 K, 1167 kPa | 1326.1
313.15 K, 1191 kPa | 1326.5
313.15 K, 1222 kPa | 1326.6
313.15 K, 1249 kPa | 1327
313.15 K, 1273 kPa | 1327.4
313.15 K, 1296 kPa | 1327.6
313.15 K, 1317 kPa | 1327.7
313.15 K, 1338 kPa | 1328
313.15 K, 1369 kPa | 1328.3
313.15 K, 1396 kPa | 1328.6
313.15 K, 1472 kPa | 1329.4
313.15 K, 1496 kPa | 1329.6
313.15 K, 1525 kPa | 1330
313.15 K, 1550 kPa | 1330.3
313.15 K, 1575 kPa | 1330.4
313.15 K, 1597 kPa | 1330.7
313.15 K, 1618 kPa | 1331
313.15 K, 1653 kPa | 1331.4
313.15 K, 1677 kPa | 1331.6
313.15 K, 1698 kPa | 1331.7
313.15 K, 1726 kPa | 1332.2
313.15 K, 1744 kPa | 1332.4
313.15 K, 1772 kPa | 1332.6
313.15 K, 1793 kPa | 1332.8
313.15 K, 1811 kPa | 1333
313.15 K, 1836 kPa | 1333.3
313.15 K, 1864 kPa | 1333.4
313.15 K, 1893 kPa | 1333.9
313.15 K, 1921 kPa | 1334.1
313.15 K, 1946 kPa | 1334.4
313.15 K, 1972 kPa | 1334.7
313.15 K, 1998 kPa | 1334.8
313.15 K, 2028 kPa | 1335.1
313.15 K, 2049 kPa | 1335.2
313.15 K, 2077 kPa | 1335.6
313.15 K, 2102 kPa | 1335.9
313.15 K, 2131 kPa | 1336.1
313.15 K, 2153 kPa | 1336.4
313.15 K, 2183 kPa | 1336.7
313.15 K, 2208 kPa | 1337
313.15 K, 2230 kPa | 1337.2
313.15 K, 2692 kPa | 1341.6
313.15 K, 2720 kPa | 1342
313.15 K, 2751 kPa | 1342.2
313.15 K, 2775 kPa | 1342.4
313.15 K, 2803 kPa | 1342.8
313.15 K, 2825 kPa | 1342.9
313.15 K, 2851 kPa | 1343.2
313.15 K, 2872 kPa | 1343.4
313.15 K, 2905 kPa | 1343.7
313.15 K, 2928 kPa | 1343.9
313.15 K, 2959 kPa | 1344.2
313.15 K, 2986 kPa | 1344.4
313.15 K, 3012 kPa | 1344.6
313.15 K, 3042 kPa | 1345
313.15 K, 3072 kPa | 1345.3
313.15 K, 3095 kPa | 1345.4
313.15 K, 3298 kPa | 1347.3
313.15 K, 3325 kPa | 1347.5
313.15 K, 3356 kPa | 1347.8
313.15 K, 3379 kPa | 1348
313.15 K, 3402 kPa | 1348.2
313.15 K, 3437 kPa | 1348.6
313.15 K, 3464 kPa | 1348.7
313.15 K, 3491 kPa | 1349.1
313.15 K, 3518 kPa | 1349.3
313.15 K, 3548 kPa | 1349.5
313.15 K, 3572 kPa | 1349.7
313.15 K, 3603 kPa | 1350.1
313.15 K, 3625 kPa | 1350.2
313.15 K, 3656 kPa | 1350.5
313.15 K, 3679 kPa | 1350.7
313.15 K, 3702 kPa | 1350.9
313.15 K, 3737 kPa | 1351.2
313.15 K, 3761 kPa | 1351.4
313.15 K, 3794 kPa | 1351.7
313.15 K, 3822 kPa | 1352
313.15 K, 3858 kPa | 1352.3
313.15 K, 3898 kPa | 1352.7
313.15 K, 3926 kPa | 1352.9
313.15 K, 3954 kPa | 1353.2
313.15 K, 3982 kPa | 1353.4
313.15 K, 4018 kPa | 1353.5
313.15 K, 4043 kPa | 1353.9
313.15 K, 4079 kPa | 1354.3
313.15 K, 4110 kPa | 1354.6
313.15 K, 4134 kPa | 1354.8
313.15 K, 4167 kPa | 1355
313.15 K, 4208 kPa | 1355.4
313.15 K, 4360 kPa | 1356.6
313.15 K, 4382 kPa | 1356.8
313.15 K, 4410 kPa | 1357
313.15 K, 4435 kPa | 1357.3
313.15 K, 4463 kPa | 1357.5
313.15 K, 4732 kPa | 1359.7
313.15 K, 4757 kPa | 1360
313.15 K, 4793 kPa | 1360.1
313.15 K, 4811 kPa | 1360.4
313.15 K, 4847 kPa | 1360.6
313.15 K, 4872 kPa | 1360.9
313.15 K, 4904 kPa | 1361.1
313.15 K, 4929 kPa | 1361.5
313.15 K, 4958 kPa | 1361.6
313.15 K, 4976 kPa | 1361.7
313.15 K, 5023 kPa | 1362.3
313.15 K, 5048 kPa | 1362.3
313.15 K, 5074 kPa | 1362.5
313.15 K, 5096 kPa | 1362.7
313.15 K, 5125 kPa | 1363.1
313.15 K, 5148 kPa | 1363.1
313.15 K, 5167 kPa | 1363.4
313.15 K, 5200 kPa | 1363.6
313.15 K, 5222 kPa | 1363.9
313.15 K, 5259 kPa | 1364
313.15 K, 5281 kPa | 1364.2
313.15 K, 5308 kPa | 1364.4
313.15 K, 5330 kPa | 1364.6
313.15 K, 5357 kPa | 1364.8
313.15 K, 5383 kPa | 1365.1
313.15 K, 5409 kPa | 1365.3
313.15 K, 5434 kPa | 1365.4
313.15 K, 5457 kPa | 1365.7
313.15 K, 5485 kPa | 1365.9
313.15 K, 5508 kPa | 1366.1
313.15 K, 5534 kPa | 1366.3
313.15 K, 5560 kPa | 1366.5
313.15 K, 5593 kPa | 1366.7
313.15 K, 5616 kPa | 1366.9
313.15 K, 5646 kPa | 1367.1
313.15 K, 5672 kPa | 1367.3
313.15 K, 5694 kPa | 1367.6
313.15 K, 5717 kPa | 1367.8
313.15 K, 5739 kPa | 1367.9
313.15 K, 5766 kPa | 1368
313.15 K, 5801 kPa | 1368.3
313.15 K, 5828 kPa | 1368.5
313.15 K, 5847 kPa | 1368.7
313.15 K, 5870 kPa | 1368.9
313.15 K, 5901 kPa | 1369.2
313.15 K, 5932 kPa | 1369.4
313.15 K, 5959 kPa | 1369.7
313.15 K, 5987 kPa | 1369.8
313.15 K, 6022 kPa | 1370
313.15 K, 6049 kPa | 1370.4
313.15 K, 6073 kPa | 1370.5
313.15 K, 6096 kPa | 1370.6
313.15 K, 6128 kPa | 1370.8
313.15 K, 6163 kPa | 1371.1
313.15 K, 6406 kPa | 1372.9
313.15 K, 6434 kPa | 1373
